Measurements reported in patent US20220009920A1 (GB005, Inc., priority 2020, published 2022).

Key:
Experiment in all cases: Large panel kinase profiling
Type in all cases: biochemical
Conditions in all cases: 1 μM test article, 1 mM ATP
CSNK1G1/CK1G1 = biological target: T1, CSNK1G1/CK1G1 (Homo sapiens, UniProt Q9HCP0)
T1 construct: AssayQuant Technologies, Inc. (service laboratory)
Summary of the method: (§1)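 Steps: combine kinase, CSox-Sensor substrate, 1 mM ATP and 1 μM compound; seal and incubate at 30° C.; read top fluorescence kinetically each minute, Ex 360 nm/Em 485 nm.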

GAK = biological target: T2, GAK (Homo sapiens, UniProt O14976)
T2 construct: AssayQuant Technologies, Inc. (service provider)
T2 sequence (O14976 1-1311): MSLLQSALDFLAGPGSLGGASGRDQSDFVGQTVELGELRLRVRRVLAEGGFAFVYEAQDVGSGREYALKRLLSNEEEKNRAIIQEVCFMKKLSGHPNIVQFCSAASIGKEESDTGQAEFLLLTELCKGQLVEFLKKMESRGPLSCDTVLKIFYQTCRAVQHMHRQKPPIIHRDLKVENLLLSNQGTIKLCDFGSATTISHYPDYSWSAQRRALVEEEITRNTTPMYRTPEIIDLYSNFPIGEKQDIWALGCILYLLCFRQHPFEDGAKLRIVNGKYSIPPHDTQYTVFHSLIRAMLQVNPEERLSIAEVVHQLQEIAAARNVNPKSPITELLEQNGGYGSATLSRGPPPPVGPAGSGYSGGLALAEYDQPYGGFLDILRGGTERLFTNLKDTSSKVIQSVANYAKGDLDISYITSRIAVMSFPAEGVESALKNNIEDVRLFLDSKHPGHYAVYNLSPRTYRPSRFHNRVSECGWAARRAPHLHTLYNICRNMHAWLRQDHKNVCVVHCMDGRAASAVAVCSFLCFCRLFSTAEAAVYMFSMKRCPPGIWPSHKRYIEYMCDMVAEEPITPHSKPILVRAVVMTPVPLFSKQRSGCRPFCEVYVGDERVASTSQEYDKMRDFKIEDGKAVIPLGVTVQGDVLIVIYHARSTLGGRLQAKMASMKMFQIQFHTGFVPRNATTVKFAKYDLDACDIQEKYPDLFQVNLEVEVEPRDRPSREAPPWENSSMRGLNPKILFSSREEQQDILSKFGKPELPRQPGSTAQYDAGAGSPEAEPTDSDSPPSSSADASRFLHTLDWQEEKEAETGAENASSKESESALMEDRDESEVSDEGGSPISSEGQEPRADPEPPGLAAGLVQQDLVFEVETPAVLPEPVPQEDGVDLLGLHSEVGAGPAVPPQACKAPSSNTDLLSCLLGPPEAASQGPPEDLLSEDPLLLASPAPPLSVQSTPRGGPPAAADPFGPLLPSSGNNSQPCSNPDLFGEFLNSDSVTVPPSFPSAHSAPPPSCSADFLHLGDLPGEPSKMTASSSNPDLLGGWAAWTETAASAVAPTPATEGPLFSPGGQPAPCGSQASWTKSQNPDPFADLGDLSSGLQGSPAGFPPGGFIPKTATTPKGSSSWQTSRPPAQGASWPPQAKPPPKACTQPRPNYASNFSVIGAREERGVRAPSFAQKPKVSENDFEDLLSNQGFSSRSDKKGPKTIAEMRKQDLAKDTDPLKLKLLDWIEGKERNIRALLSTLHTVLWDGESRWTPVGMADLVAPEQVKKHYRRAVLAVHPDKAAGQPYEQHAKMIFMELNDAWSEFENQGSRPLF
Summary of the method: as §1

GRK7 = biological target: T3, GRK7 (Homo sapiens, UniProt Q8WTQ7)
T3 construct: AssayQuant Technologies, Inc. (service provider)
T3 sequence (Q8WTQ7 1-553): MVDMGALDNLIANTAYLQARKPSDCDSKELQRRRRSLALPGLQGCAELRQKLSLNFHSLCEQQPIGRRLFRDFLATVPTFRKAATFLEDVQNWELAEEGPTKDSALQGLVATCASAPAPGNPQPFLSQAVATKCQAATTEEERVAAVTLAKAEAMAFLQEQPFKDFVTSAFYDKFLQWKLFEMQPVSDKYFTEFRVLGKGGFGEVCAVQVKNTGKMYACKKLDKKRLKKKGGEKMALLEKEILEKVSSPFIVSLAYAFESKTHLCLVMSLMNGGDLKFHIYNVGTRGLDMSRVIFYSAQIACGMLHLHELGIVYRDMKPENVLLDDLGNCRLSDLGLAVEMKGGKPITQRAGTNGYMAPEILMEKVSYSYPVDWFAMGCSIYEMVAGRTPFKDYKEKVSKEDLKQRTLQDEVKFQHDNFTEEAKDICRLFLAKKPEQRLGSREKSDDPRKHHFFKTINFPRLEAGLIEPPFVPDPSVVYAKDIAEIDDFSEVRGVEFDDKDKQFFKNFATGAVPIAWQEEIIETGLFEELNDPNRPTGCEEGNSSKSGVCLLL
Summary of the method: as §1

MARK3 = biological target: T4, MARK3 (Homo sapiens, UniProt P27448)
T4 construct: AssayQuant Technologies, Inc. (assay service)
T4 sequence (P27448 whole entry, species assumed): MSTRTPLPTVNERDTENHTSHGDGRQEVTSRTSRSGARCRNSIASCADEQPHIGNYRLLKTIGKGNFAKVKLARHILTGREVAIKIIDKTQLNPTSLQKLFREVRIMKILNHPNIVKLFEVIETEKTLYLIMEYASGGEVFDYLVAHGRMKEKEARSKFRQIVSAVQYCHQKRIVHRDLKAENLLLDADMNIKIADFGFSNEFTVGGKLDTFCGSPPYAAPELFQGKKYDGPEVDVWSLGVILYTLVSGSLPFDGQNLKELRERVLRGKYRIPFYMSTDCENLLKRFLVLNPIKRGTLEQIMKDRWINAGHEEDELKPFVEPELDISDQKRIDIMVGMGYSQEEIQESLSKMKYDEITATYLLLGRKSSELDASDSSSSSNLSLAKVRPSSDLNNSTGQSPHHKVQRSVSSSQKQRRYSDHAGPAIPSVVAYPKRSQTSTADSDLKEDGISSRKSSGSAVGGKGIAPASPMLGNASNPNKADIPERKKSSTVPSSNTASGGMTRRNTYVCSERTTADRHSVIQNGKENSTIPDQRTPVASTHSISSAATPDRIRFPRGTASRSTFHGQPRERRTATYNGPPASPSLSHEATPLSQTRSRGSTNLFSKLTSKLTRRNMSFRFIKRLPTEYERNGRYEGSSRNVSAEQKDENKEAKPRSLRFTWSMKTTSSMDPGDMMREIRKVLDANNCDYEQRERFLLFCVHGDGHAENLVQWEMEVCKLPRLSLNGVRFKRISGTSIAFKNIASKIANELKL
Summary of the method: as §1

T1 sequence (Q9HCP0 whole entry): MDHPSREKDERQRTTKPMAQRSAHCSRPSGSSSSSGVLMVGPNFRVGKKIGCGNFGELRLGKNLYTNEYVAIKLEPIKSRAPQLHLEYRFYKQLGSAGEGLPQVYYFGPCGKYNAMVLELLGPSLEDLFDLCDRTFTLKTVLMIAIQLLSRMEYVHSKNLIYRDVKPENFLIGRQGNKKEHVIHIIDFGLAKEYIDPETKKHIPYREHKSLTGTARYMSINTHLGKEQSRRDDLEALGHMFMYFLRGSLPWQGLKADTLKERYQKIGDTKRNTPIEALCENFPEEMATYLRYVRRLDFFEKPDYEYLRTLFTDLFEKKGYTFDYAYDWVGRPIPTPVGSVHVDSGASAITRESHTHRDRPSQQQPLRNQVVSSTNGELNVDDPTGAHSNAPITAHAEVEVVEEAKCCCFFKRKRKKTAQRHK

SMILES | inhibition at 1 µM (CSNK1G1/CK1G1) | inhibition at 1 µM (GAK) | inhibition at 1 µM (GRK7) | inhibition at 1 µM (MARK3)
C=CC(=O)N1CCCC(c2c(F)cc(C(N)=O)c3[nH]c4c(c23)CCCCC4)C1 (single isomer, unassigned) [Compound 5-6] | 17.2% | 17.9% | 1.3% | 1.6%
C=CC(=O)N1CCC[C@@H](c2c(F)cc(C(N)=O)c3[nH]c4c(c23)CC2(CC4)CC2)C1 [Compound 6-2, (S)-5-(1-acryloylpiperidin-3-yl)-6-fluoro-1,2,4,9-tetrahydrospiro[carbazole-3,1′-cyclopropane]-8-carboxamide] | 14% | -3.7% | 10.9% | -10.6%
C=CC(=O)N1CCC[C@@H](c2c(F)cc(C(N)=O)c3[nH]c4c(c23)CCC4)C1 [Compound 10-2, (S)-8-(1-acryloylpiperidin-3-yl)-7-fluoro-1,2,3,4-tetrahydrocyclo-penta[b]indole-5-carboxamide] | -2.8% | -28.4% | -33% | -90.5%
